These are literature values, as cited in patent US9163009B2, “Salts of raltegravir” (priority 2011, dated 2015).

For data set [1] the following is noted: in vivo.
The conditions of data set [2]: water.

For the molecule `Cc1nnc(C(=O)NC(C)(C)c2nc(C(=O)NCc3ccc(F)cc3)c([O-])c(=O)n2C)o1.[K+]` [Form 1], the bioavailability over raltegravir result in data set [1] is “superior bioavailability”. With `Cc1nnc(C(=O)NC(C)(C)c2nc(C(=O)NCc3ccc(F)cc3)c(O)c(=O)n2C)o1` [Raltegravir, N-(4-fluorobenzyl)-5-hydroxy-1-methyl-2-(1-methyl-1-{[(5-methyl-1,3,4-oxadiazol-2-yl)carbonyl]amino}ethyl)-6-oxo-1,6-dihydropyrimidine-4-carboxamide], the aqueous solubility result in data set [2] is on record as “poor”. On to `Cc1nnc(C(=O)NC(C)(C)c2nc(C(=O)NCc3ccc(F)cc3)c([O-])c(=O)n2C)o1.[K+]` [potassium salt of raltegravir], for which the aqueous solubility entry in data set [2] is “significantly more soluble”.
